Source: publication PMC8501045, “Addressing MRSA infection and antibacterial resistance with peptoid polymers” (Nature Communications, 2021)
≈ marks a conversion by molar mass, not a printed value. Where “and” joins values, the source holds several entries; their conditions need not be identical. Identical values can stand only once. Like-named read-outs stand apart in the source and are kept apart here.

How the values were obtained:
E. faecium 0610 = assay: MIC assay, clinical isolate; format: cell-based; conditions: Enterococcus faecium; clinical isolate E. faecium 0610; read-out: MIC
Procedure: (§1) MRSA (S. aureus Mu50, S. aureus Newman, S. aureus USA400, S. aureus USA300 LAC, S. aureus USA300) were obtained from Shanghai Institute of Materia Medica, Chinese Academy of Sciences. All clinically isolated Gram-positive bacteria used in this study were isolated from patients with various infections, different ages and sexes in the Shanghai Ruijin Rehabilitation Hospital. All strains were cultured in Luria-Bertani (LB) medium at 37 °C before use.
(§2) Bacteria were cultured in LB medium at 37 °C for 10 h, and then the bacterial suspension was diluted in Mueller–Hinton (MH) medium to a cell density of 2 × 10^5 colony forming units (CFU)/mL as the working suspension. The poly(Naeg)20 was serially diluted by MH medium in a 96-well plate, and an equal volume of bacterial suspension was added into each well. The final concentration of the poly(Naeg)20 was ranging from 200 to 1.56 μg/mL, and the plates were incubated at 37 °C for 9 h. Wells with inoculum and no polymer were used as the positive control; wells with only MH medium were used as the blank. The optical density (OD) in each well was measured on a Molecular Devices SpectraMax M2 precision microplate reader. The percentage of bacteria growth was calculated from1 %cellgrowth=A600polymer-A600blank/A600control-A600blank×100
(§3) The test was independently repeated at least three times.

E. faecium 0502 = assay: MIC assay, clinical isolate; format: cell-based; conditions: Enterococcus faecium; clinical isolate E. faecium 0502; read-out: MIC
Procedure: as §1, §2, §3

E. faecium 1205 = assay: MIC assay, clinical isolate; format: cell-based; conditions: Enterococcus faecium; clinical isolate E. faecium 1205; read-out: MIC
Procedure: as §1, §2, §3

E. faecium 0609 = assay: MIC assay, clinical isolate; format: cell-based; conditions: Enterococcus faecium; clinical isolate E. faecium 0609; read-out: MIC
Procedure: as §1, §2, §3

S. aureus 2202 = assay: MIC assay, clinical isolate; format: cell-based; conditions: Staphylococcus aureus; clinical isolate S. aureus 2202; read-out: MIC
Procedure: as §1, §2, §3

S. aureus 2904 = assay: MIC assay, clinical isolate; format: cell-based; conditions: Staphylococcus aureus; clinical isolate S. aureus 2904; read-out: MIC
Procedure: as §1, §2, §3

S. epidermidis 9397 = assay: MIC assay, clinical isolate; format: cell-based; conditions: Staphylococcus epidermidis; clinical isolate S. epidermidis 9397; read-out: MIC
Procedure: as §1, §2, §3

E. faecalis 2305 = assay: MIC assay, clinical isolate; format: cell-based; conditions: Enterococcus faecalis
Procedure: as §1, §2, §3

S. aureus 2802 = assay: MIC assay, clinical isolate; format: cell-based; conditions: Staphylococcus aureus; clinical isolate S. aureus 2802; read-out: MIC
Procedure: as §1, §2, §3

S. epidermidis 0501 = assay: MIC assay, clinical isolate; format: cell-based; conditions: Staphylococcus epidermidis; clinical isolate S. epidermidis 0501; read-out: MIC
Procedure: as §1, §2, §3

S. haemolyticus 0202 = assay: MIC assay, clinical isolate; format: cell-based; conditions: Staphylococcus haemolyticus; clinical isolate S. haemolyticus 0202; read-out: MIC
Procedure: as §1, §2, §3

S. haemolyticus 1107 = assay: MIC assay, clinical isolate; format: cell-based; conditions: Staphylococcus haemolyticus; clinical isolate S. haemolyticus 1107; read-out: MIC
Procedure: as §1, §2, §3

S. aureus 2902 = assay: MIC assay, clinical isolate; format: cell-based; conditions: Staphylococcus aureus; clinical isolate S. aureus 2902; read-out: MIC
Procedure: as §1, §2, §3

E. faecium 2504 = assay: MIC assay, clinical isolate; format: cell-based; conditions: Enterococcus faecium; clinical isolate E. faecium 2504; read-out: MIC
Procedure: as §1, §2, §3

E. faecalis 0609 = assay: MIC assay, clinical isolate; format: cell-based; conditions: Enterococcus faecalis
Procedure: as §1, §2, §3

S. agalactiae 0613 = assay: MIC assay, clinical isolate; format: cell-based; conditions: Streptococcus agalactiae; clinical isolate S. agalactiae 0613; read-out: MIC
Procedure: as §1, §2, §3

S. haemolyticus 1303 = assay: MIC assay, clinical isolate; format: cell-based; conditions: Staphylococcus haemolyticus; clinical isolate S. haemolyticus 1303; read-out: MIC
Procedure: as §1, §2, §3

L. monocytogenes 1001 = assay: MIC assay, clinical isolate; format: cell-based, Listeria monocytogene; conditions: Listeria monocytogenes
Procedure: as §1, §2, §3

S. aureus ATCC6538 [1] = format: cell-based, Staphylococcus aureus; conditions: after 375 passages
Procedure: The antimicrobial-resistance test was conducted according to the previously reported method with slight modification. […] An aliquot of 2.5 μL of the mixture was sampled and diluted 400-fold in LB medium for a new cell-drug incubation cycle. The above cycle was repeated every 24 h. […] Generation of bacteria growth was calculated from incubating time and bacteria growth kinetics described below.

[2] = system: S. aureus USA300 biofilm formation; assay: Inhibition study on biofilm formation; format: cell-based, Staphylococcus aureus
Procedure: The plate was incubated at 37 °C for 24 h, and then the culture medium was removed, washed with PBS once, followed by adding 100 µL MTT solution (0.5 mg/mL) into the corresponding well. After further incubation at 37 °C for 4 h in the dark, the MTT solution was removed. An aliquot of 100 μL DMSO was added to each well to solubilize the purple solid and then the OD value was collected at 570 nm on a microplate reader. Wells containing inoculum and without antibacterial agents were used as the positive control; wells containing only MH medium were used as the blank. The percentage of surviving cells within biofilm was calculated from4 %cellviability=A570polymer-A570blank/A570control-A570blank×100
as §3

S. aureus ATCC6538 [3] = assay: Bacterial killing kinetics; format: cell-based, Staphylococcus aureus; conditions: 2×MBC (Figure S40)
[4] = system: S. aureus USA300 mature biofilm; assay: Activity against mature biofilm; format: cell-based, Staphylococcus aureus; conditions: for Biofilm survival(%): norfloxacin, r4-r9 = 64, 128, 256, 512, 1024, 2048 MIC
Procedure: The plate was incubated at 37 °C for 24 h to allow biofilm formation. […] Then MTT assay was used to determine the biofilm viability. Wells containing inoculum and without antibacterial agents were used as the positive control; wells containing only MH medium were used as the blank. The percentage of surviving cells within biofilm was calculated from5 %cellviability=A570polymer-A570blank/A570control-A570blank×100
as §3

[5] = clinical isolate L. monocytogenes 1001, read-out: MIC
[6] = clinical isolate E. faecalis 2305, read-out: MIC

Structure (SMILES)	MIC (E. faecium 0610)	MIC (E. faecium 0502)	MIC (E. faecium 1205)	MIC (E. faecium 0609)	MIC (S. aureus 2202)	MIC (S. aureus 2904)	MIC (S. epidermidis 9397)	MIC (S. aureus 2802)	MIC (S. epidermidis 0501)	MIC (S. haemolyticus 0202)	MIC (S. haemolyticus 1107)	MIC (S. aureus 2902)	MIC (E. faecium 2504)	MIC (E. faecalis 0609; 0609)	MIC (S. agalactiae 0613)	MIC (S. haemolyticus 1303)	MIC (L. monocytogenes 1001; [5])	MIC (E. faecalis 2305; [6])	time to kill 90% of S. aureus (S. aureus ATCC6538 [3])	further results
CC1(C)S[C@@H]2[C@H](NC(=O)[C@H](N)c3ccccc3)C(=O)N2[C@H]1C(=O)O [Ampicillin]	> 200 µg/mL	> 200 µg/mL	> 200 µg/mL	> 200 µg/mL	1.56 µg/mL (≈ 4.46 µM)	25 µg/mL (≈ 71.5 µM)	0.39 µg/mL (≈ 1.12 µM)	25 µg/mL (≈ 71.5 µM)	6.25 µg/mL (≈ 17.9 µM)	200 µg/mL (≈ 572 µM)	> 200 µg/mL	25 µg/mL (≈ 71.5 µM)	100 µg/mL (≈ 286 µM)	3.13 µg/mL (≈ 8.96 µM)	0.39 µg/mL (≈ 1.12 µM)	200 µg/mL (≈ 572 µM)	1.56 µg/mL (≈ 4.46 µM)	–	–	MIC (E. faecalis 2305; 2305): 12.5 µg/mL (≈ 35.8 µM)
COc1cccc(OC)c1C(=O)N[C@@H]1C(=O)N2[C@@H]1SC(C)(C)[C@@H]2C(=O)O [Methicillin]	> 200 µg/mL	> 200 µg/mL	> 200 µg/mL	> 200 µg/mL	3.13 µg/mL (≈ 8.23 µM)	6.25 µg/mL (≈ 16.4 µM)	1.56 µg/mL (≈ 4.1 µM)	6.25 µg/mL (≈ 16.4 µM)	12.5 µg/mL (≈ 32.9 µM)	200 µg/mL (≈ 526 µM)	> 200 µg/mL	12.5 µg/mL (≈ 32.9 µM)	> 200 µg/mL	–	1.56 µg/mL (≈ 4.1 µM)	> 200 µg/mL	25 µg/mL (≈ 65.7 µM)	> 200 µg/mL	–	MIC (E. faecalis 0609; clinical isolate E. faecalis 0609, read-out: MIC): 50 µg/mL (≈ 131 µM)
CCn1cc(C(=O)O)c(=O)c2cc(F)c(N3CCNCC3)cc21 [Norfloxacin]	200 µg/mL (≈ 626 µM)	100 µg/mL (≈ 313 µM)	100 µg/mL (≈ 313 µM)	> 200 µg/mL	50 µg/mL (≈ 157 µM)	200 µg/mL (≈ 626 µM)	0.2 µg/mL (≈ 0.626 µM)	200 µg/mL (≈ 626 µM)	0.2 µg/mL (≈ 0.626 µM)	100 µg/mL (≈ 313 µM)	100 µg/mL (≈ 313 µM)	25 µg/mL (≈ 78.3 µM)	200 µg/mL (≈ 626 µM)	1.56 µg/mL (≈ 4.89 µM)	25 µg/mL (≈ 78.3 µM)	25 µg/mL (≈ 78.3 µM)	–	25 µg/mL (≈ 78.3 µM)	2 to 3 h	increase of MBC (S. aureus ATCC6538 [1]): 1024 times; concentration required to inhibit the formation of S. aureus biofilm [2]: 64 × MIC; MIC (L. monocytogenes 1001; 1001): 1.56 µg/mL (≈ 4.89 µM); concentration that eradicates mature biofilms of S. aureus [4]: > 2048 × MIC; Biofilm survival(%) ([4]; replicate 1): 91.6463% and 85.7695% and 83.8544% and 89.6297% and 72.4394% and 55.1024%; Biofilm survival(%) ([4]; replicate 2): 89.0013% and 75.6713% and 82.9402% and 81.0138% and 70.6748% and 61.6339%; Biofilm survival(%) ([4]; replicate 3): 91.3528% and 81.8867% and 88.4821% and 86.774% and 64.2036% and 56.0543%
C[C@H]1COc2c(N3CCN(C)CC3)c(F)cc3c(=O)c(C(=O)O)cn1c23 [levofloxacin]	–	–	–	–	–	–	–	–	–	–	–	–	–	–	–	–	–	–	2 to 3 h	–
